For assay [1], the target named is Beta-2 adrenergic receptor (Homo sapiens, UniProt P07550). Description: ADRB2 activation measured by internalization – cell-based, FAP fluorogen, flow cytometry, cherry pick 1, dose response (AID 588763). Format: functional.
Another assay addresses Beta-galactosidase (Escherichia coli, UniProt Q8VNN2). Description: PubChem AID 485352. Format: functional.
Another assay deals with T1, Leucine aminopeptidase (Plasmodium falciparum 3D7, UniProt Q8IL11).
T1 sequence (Q8IL11 whole entry): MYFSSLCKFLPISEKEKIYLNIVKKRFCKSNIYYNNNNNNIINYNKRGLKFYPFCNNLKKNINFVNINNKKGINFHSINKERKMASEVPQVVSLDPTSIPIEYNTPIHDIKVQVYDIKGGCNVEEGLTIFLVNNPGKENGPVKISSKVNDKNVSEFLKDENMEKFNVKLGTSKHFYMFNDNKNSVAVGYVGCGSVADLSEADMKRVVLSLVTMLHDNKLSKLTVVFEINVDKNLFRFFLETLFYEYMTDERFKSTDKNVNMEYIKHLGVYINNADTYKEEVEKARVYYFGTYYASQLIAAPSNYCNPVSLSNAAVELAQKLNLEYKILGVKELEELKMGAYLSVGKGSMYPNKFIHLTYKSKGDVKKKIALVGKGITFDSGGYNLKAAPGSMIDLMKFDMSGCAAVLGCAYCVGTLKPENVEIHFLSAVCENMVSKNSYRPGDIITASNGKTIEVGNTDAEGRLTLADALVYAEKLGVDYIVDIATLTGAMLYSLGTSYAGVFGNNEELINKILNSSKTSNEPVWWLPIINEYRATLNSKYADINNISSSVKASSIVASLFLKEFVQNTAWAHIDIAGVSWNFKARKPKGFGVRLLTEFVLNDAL
Description: P. falciparum M17LAP inhibitors, primary screen, biochemical, fluorogenic H-Leu-NHMec substrate, 1536-well (AID 1619). Format: functional.

Assay [2] addresses T2, Short transient receptor potential channel 4 (Mus musculus, UniProt Q9QUQ5).
T2 sequence (Q9QUQ5 whole entry): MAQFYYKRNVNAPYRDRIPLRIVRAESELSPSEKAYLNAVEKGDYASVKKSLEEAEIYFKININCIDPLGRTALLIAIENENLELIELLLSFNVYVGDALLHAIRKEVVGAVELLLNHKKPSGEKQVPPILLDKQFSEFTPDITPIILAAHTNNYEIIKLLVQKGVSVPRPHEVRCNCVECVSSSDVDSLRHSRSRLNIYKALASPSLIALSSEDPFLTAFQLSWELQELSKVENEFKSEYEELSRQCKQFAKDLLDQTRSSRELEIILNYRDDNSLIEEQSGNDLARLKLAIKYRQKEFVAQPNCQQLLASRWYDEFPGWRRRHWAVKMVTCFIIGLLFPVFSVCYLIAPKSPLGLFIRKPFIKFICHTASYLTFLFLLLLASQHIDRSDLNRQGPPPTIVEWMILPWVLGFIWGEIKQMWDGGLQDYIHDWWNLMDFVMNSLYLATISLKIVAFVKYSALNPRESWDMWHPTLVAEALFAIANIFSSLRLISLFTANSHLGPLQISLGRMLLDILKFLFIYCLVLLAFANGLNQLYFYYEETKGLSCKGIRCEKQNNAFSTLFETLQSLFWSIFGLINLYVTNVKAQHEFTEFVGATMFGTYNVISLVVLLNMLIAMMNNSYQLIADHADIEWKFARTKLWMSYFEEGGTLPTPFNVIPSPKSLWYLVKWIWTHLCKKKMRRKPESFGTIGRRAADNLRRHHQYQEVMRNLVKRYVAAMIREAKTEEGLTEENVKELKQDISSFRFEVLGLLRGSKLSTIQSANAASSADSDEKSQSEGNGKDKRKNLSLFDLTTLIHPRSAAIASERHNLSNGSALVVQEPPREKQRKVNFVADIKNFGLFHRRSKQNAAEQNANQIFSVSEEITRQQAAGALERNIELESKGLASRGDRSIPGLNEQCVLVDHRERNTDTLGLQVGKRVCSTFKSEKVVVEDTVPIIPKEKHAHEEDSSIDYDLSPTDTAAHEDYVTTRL
The assay is described as follows: calcium entry via TRPC4 opening agents – cell-based, HEK293 TRPC4/mu-opioid, Fluo-4 calcium, dose response (AID 434937). Format: functional.

The target in assay [3] is Type-1 angiotensin II receptor (Homo sapiens, UniProt P30556). Description: antagonism of angiotensin II type 1 receptor – cell-based, uHTS hits, selectivity assay for APJ receptor antagonist project, dose response (AID 463214).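 Also: antagonist potency against angiotensin II stimulated AT1 response.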 Format: functional.
Assay [4] in a line: Trypanosoma cruzi growth suppression in host cells – NIH3T3 host cells, beta-gal luminescence, confirmation (AID 2044).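 Also: intracellular parasites grown in NIH/3T3 mouse fibroblasts as host cells; luminescent beta-galactosidase reporter signal from transgenic T. cruzi replicating inside host cells; inhibitors lower the luminescence signal.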 Format: functional, cell-based.
Assay [5] concerns INS1. Description: INS-1E survival protection against cytokine death – cell-based, luminescence, retest, dose response (AID 449756).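 Also: cell death triggered by IL-1 beta plus TNF-alpha plus IFN-gamma mixture; protective hits raise ATP signal compared with cytokine alone wells.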 Format: functional. The note with it: Rattus norvegicus.
Assay [6] in a line: NIH3T3 cell viability loss – ATP luminescence, mouse fibroblasts, counter-screen, dose response (AID 2010).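 Also: cells exposed to compound for about 90 hours before reading.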 Format: functional, cell-based.
A short description of assay [7]: alpha-synuclein stem-loop luciferase translation blockers – H4 neuroglioma cells, luminescence, confirmation (AID 1988). Format: functional, cell-based.
Assay [8] can be described thus: Luminescence Cell-Based Dose Response HTS to Identify Inhibitors of 5'UTR Stem-Loop Driven Prion Protein mRNA Translation in H4 Neuroglioblastoma Cells. [Related pubchem assays: 1827 (Project Summary), 1813 (Primary HTS)]. Format: functional.
Assay [9] concerns the target Apoptotic protease-activating factor 1 (Homo sapiens, UniProt O14727). Format: functional.
A short description of assay [10]: luciferase reporter signal suppression in cells – H4 neuroglioma cells, luminescence, dose response (AID 1990). Format: functional, cell-based.
Assay [11] has as its target T3, Microphthalmia-associated transcription factor (Homo sapiens, UniProt O75030).
T3 sequence (O75030 whole entry): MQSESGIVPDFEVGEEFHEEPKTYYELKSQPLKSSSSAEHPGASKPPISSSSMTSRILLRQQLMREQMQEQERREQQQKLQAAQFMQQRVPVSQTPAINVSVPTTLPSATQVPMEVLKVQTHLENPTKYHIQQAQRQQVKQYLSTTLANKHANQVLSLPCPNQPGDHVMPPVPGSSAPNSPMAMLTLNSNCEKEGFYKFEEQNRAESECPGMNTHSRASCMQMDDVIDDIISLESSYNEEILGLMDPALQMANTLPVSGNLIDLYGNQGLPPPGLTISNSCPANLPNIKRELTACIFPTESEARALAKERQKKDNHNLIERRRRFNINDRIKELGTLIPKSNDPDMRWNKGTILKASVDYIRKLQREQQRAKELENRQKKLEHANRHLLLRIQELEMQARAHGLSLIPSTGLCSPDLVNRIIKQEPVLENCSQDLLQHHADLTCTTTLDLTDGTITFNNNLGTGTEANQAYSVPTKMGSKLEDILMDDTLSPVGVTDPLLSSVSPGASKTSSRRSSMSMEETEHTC
Description: reducers of TRPM1 reporter luminescence, concentration series – cell-based, SK-MEL-5, cherry-picked, set 3, MITF inhibitor project, dose response (AID 493073).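 Also: SK-MEL-5 melanoma cells with luciferase driven by the MITF target TRPM1 promoter.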 Format: functional.

The next assay has as its target Paired box protein Pax-8 (Homo sapiens, UniProt Q06710). The assay is described as follows: PAX8 transcriptional activity inhibition in RMG-I – RMG-I cells, luciferase, cherry-pick, dose response (AID 687027).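 Also: luciferase reporter driven by Pax8 target thyroperoxidase promoter measured by SteadyGlo luminescence.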 Format: functional, cell-based.
The test system of assay [12] is INS1. The assay is described as follows: suppression of NO production in INS-1E cells – cell-based, Griess absorbance, dry powder, set 2, dose response (AID 488868). The note with it: Rattus norvegicus. Format: functional.
A short description of assay [13]: suppression of NO production in INS-1E cells – cell-based, Griess absorbance, dry powder, set 3, dose response (AID 488870). Format: functional. The note with it: Rattus norvegicus.
The subject of assay [14] is INS1. Description: INS-1E mitochondrial potential loss inhibitors – cell-based, JC-1 fluorescence, dry powder, set 2, dose response (AID 488867). The note with it: Rattus norvegicus. Format: functional.
Assay [15] deals with Candida albicans. The assay is described as follows: C. albicans growth inhibition with fluconazole – CaCi-2 strain, Alamar Blue, dry powder, set 4, dose response (AID 488943). Format: functional, organism-based.
The test system of another assay is NIH3T3. Description: mammalian cell viability counter-check – Alamar Blue, fluconazole, dry powder, cytotoxicity control for antifungal drug resistance project, dose response (AID 488809). Format: functional, cell-based. The note with it: Mus musculus.
Assay [16] relates to Candida albicans. The assay is described as follows: single-agent toxicity toward C. albicans – CaCi-2 strain, no fluconazole, dry powder, set 4, counter-screen for reversing antifungal drug resistance, dose response (AID 488932). Format: functional, organism-based.
Assay [17] relates to Candida albicans. Description: antifungal activity against resistant Candida strain – CaCi-8, fluconazole, Alamar Blue, dry powder, dose response (AID 488807). Format: functional, organism-based.
The subject of assay [18] is Candida albicans. The assay is described as follows: fluconazole-resistant Candida strain growth inhibitors – CaCi-8 strain, dry powder, set 4, dose response (AID 488950). Format: functional, organism-based.
The target of another assay is T4, Hexokinase HKDC1 (Homo sapiens, UniProt Q2TB90).
T4 sequence (Q2TB90 whole entry): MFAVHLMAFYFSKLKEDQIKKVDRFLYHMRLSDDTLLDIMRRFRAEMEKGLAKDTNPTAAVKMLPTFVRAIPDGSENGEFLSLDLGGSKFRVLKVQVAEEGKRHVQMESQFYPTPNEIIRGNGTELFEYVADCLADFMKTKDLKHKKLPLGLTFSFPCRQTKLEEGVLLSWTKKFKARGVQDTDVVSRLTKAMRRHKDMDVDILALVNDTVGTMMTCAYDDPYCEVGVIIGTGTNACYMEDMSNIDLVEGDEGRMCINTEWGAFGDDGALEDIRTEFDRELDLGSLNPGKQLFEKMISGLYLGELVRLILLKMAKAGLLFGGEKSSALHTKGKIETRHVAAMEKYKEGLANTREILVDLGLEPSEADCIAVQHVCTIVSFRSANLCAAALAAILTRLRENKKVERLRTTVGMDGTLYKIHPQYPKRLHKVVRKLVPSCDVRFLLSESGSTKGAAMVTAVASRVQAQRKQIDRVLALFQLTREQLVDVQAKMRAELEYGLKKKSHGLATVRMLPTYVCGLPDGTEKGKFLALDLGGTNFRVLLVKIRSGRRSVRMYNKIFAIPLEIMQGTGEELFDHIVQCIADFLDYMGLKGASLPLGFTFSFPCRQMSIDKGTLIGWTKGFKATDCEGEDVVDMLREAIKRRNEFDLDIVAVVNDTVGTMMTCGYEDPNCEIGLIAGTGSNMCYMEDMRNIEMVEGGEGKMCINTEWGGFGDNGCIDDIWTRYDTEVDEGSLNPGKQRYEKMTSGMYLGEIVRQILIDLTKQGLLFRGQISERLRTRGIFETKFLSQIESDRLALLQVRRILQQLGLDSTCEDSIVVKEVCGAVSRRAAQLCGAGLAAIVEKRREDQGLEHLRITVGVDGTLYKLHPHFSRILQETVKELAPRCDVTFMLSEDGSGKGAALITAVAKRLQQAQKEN
The assay is described as follows: SAR analysis of small molecule inhibitors of hexokinase domain containing I (HKDC1). [Related pubchem assays (depositor defined):AID493160, AID493190]. Format: functional.

A further assay addresses Hexokinase-1 (Homo sapiens, UniProt P19367). Description: SAR analysis of small molecule inhibitors of hexokinase domain containing I (HKDC1) in the hexokinase 1 selectivity assay. [Related pubchem assays (depositor defined):AID493160, AID493190]. Format: functional.

Calls of active or inactive are those of the source.

Beta-2 adrenergic receptor, sequence (P07550 whole entry): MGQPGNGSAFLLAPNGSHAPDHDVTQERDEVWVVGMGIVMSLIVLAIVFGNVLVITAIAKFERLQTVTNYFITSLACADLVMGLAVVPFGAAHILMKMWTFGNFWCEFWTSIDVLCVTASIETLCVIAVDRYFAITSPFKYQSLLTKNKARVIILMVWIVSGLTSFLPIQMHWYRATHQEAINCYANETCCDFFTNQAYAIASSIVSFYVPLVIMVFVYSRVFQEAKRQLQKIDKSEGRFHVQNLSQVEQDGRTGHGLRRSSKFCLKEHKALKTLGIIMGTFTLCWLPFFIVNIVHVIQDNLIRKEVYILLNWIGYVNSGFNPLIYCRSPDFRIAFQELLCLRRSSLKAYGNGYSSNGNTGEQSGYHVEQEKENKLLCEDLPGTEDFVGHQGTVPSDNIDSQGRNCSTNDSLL
Apoptotic protease-activating factor 1, sequence (O14727 whole entry): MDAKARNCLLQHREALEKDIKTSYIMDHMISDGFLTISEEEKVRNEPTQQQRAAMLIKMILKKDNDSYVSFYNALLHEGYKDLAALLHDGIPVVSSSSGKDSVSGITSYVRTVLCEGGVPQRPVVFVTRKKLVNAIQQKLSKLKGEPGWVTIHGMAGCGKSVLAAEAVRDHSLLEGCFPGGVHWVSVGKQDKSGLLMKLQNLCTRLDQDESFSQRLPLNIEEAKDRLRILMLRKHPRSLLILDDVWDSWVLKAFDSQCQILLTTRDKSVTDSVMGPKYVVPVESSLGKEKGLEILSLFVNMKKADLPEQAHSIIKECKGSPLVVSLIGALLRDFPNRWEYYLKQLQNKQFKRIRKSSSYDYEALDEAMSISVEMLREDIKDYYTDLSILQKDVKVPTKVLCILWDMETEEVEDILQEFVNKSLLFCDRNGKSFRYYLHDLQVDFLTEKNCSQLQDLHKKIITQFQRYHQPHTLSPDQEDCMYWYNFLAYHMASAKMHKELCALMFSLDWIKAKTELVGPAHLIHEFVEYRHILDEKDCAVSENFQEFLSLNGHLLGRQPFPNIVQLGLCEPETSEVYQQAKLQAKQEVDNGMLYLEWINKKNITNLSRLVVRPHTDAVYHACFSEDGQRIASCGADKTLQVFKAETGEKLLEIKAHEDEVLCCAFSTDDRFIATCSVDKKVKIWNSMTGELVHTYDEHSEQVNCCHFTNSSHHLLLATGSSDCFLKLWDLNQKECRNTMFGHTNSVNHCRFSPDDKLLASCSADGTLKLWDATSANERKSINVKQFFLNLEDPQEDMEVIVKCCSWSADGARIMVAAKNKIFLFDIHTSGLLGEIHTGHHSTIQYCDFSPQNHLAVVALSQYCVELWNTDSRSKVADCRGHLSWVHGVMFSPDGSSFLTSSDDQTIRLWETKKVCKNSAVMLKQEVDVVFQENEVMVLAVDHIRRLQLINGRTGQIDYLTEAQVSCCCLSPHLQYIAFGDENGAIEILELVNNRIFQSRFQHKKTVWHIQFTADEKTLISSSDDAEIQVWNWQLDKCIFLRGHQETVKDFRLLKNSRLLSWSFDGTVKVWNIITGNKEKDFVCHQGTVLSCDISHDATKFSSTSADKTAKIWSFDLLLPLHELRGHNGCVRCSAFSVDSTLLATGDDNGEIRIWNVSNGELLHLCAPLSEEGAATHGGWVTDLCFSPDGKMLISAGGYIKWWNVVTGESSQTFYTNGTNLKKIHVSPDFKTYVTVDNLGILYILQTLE
Paired box protein Pax-8, sequence (Q06710 whole entry): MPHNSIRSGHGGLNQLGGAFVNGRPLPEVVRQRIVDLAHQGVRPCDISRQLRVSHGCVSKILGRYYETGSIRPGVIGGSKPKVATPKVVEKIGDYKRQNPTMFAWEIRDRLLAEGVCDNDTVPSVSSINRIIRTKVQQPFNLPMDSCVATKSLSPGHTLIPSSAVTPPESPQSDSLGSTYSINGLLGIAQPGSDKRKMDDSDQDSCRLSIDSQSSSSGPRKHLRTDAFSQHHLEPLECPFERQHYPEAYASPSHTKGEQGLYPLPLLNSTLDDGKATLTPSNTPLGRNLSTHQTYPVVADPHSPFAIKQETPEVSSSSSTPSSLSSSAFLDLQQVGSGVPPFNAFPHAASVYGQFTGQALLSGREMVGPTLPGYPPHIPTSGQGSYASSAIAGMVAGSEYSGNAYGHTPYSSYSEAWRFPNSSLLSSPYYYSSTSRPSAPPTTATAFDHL
Hexokinase-1, sequence (P19367 whole entry, the tested form may be a part): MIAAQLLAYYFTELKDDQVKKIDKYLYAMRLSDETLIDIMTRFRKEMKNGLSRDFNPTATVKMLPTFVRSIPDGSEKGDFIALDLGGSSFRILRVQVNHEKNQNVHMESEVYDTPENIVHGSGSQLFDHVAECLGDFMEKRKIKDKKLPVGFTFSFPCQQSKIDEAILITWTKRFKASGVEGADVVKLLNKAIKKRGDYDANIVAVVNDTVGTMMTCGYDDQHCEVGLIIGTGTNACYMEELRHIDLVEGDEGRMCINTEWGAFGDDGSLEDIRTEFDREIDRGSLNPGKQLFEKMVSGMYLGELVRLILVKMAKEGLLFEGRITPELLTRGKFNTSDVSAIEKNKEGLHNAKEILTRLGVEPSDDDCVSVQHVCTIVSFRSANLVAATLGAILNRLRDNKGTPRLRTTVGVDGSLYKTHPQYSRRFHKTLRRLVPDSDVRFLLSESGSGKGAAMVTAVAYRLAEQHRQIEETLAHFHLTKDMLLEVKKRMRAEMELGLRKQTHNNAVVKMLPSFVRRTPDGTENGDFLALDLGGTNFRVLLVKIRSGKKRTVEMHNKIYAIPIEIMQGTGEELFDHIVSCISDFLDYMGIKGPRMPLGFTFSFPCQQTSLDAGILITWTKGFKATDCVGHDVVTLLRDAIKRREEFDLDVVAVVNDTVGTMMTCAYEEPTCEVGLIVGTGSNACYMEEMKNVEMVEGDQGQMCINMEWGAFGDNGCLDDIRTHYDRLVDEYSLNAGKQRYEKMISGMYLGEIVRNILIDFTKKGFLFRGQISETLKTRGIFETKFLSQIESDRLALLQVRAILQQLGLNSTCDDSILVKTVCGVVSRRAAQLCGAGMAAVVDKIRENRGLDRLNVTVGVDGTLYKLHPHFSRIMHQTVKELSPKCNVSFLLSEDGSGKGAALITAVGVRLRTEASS
Type-1 angiotensin II receptor, sequence (P30556 whole entry): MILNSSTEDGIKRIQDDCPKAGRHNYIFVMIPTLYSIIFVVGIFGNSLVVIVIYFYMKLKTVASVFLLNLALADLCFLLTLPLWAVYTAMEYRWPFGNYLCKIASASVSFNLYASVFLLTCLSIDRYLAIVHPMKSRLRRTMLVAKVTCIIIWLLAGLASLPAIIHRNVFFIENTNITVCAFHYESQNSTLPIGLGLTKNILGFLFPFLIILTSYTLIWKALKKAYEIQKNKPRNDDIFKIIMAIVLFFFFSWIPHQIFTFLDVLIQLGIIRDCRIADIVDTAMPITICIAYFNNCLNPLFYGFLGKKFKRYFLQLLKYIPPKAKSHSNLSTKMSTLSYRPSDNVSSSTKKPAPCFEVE
Beta-galactosidase, sequence (Q8VNN2 whole entry): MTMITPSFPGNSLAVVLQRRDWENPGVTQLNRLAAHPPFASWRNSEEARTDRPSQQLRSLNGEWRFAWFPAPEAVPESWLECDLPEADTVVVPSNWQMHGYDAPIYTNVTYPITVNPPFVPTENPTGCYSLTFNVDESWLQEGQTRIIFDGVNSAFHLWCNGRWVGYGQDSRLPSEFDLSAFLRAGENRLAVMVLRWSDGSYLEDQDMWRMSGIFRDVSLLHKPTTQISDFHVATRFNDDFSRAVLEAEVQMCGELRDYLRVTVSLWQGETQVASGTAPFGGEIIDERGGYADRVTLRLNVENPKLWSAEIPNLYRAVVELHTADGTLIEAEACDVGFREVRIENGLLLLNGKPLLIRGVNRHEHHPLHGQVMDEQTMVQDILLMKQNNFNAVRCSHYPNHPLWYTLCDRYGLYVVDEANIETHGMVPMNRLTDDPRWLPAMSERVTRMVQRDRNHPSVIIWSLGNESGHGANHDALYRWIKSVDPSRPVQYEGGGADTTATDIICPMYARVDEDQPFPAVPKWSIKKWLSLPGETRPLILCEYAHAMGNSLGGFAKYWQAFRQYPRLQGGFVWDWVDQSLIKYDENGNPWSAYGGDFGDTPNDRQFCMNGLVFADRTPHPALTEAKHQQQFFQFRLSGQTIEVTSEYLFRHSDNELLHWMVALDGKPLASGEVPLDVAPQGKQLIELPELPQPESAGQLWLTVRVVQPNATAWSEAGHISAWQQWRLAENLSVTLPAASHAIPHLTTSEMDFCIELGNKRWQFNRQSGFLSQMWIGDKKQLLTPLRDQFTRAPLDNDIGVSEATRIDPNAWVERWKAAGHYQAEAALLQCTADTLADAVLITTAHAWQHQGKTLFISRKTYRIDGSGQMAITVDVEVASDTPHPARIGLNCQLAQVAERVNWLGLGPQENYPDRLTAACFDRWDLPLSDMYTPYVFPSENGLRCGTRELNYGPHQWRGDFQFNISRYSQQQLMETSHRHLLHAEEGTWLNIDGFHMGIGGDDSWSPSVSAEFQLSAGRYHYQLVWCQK

`Nc1cccc(C#Cc2ccc3c(=O)c4ccccc4oc3c2)c1`: the EC50 in [1] is 0.245 µM (active).
With `CC(C)(C)c1cc(CCC(=O)NNC(=S)NC(=O)c2ccccc2)cc(C(C)(C)C)c1O`, the EC50 on Beta-galactosidase was > 40 µM (inactive); in assay [2] it was 3.35 µM (active); in assay [4], 0.382 µM (active); in assay [6], 15.7 µM (active). Besides, the figures for the IC50 (at Leucine aminopeptidase; in assay [3]) were 32.2 µM (active) and 35.5 µM (not active), respectively. Also, in the assay on INS1 [5], the AC50 was 3.99 µM (active).
With `CC(=O)Nc1ccc(S(=O)(=O)NC2=C(N3CCN(C)CC3)C(=O)c3ccccc3C2=O)cc1`, the EC50 in [7] was 11.1 µM (active); in assay [8], > 120 µM (not active); in assay [10], 15.6 µM (active). Also, the IC50 in [9] is 29.7 µM (active). The AC50 was 3.99 µM (active) in the assay with INS1 [5] and 3.65 µM (active) in assay [11].
Consider `Cc1ccc(S(=O)(=O)N(C)C[C@H]2Oc3c(NC(=O)Nc4cccc5ccccc45)cccc3C(=O)N([C@@H](C)CO)C[C@@H]2C)cc1`, for which the AC50 is 5.94 µM (active) at Paired box protein Pax-8, 45.6 µM (active) in the assay with INS1 [12], > 195 µM (inactive) in assay [13] and 38.8 µM (active) in the assay with INS1 [14].
Consider `O=C(c1csc2ccccc12)N1CCN(c2ccnc3cc(Cl)ccc23)CC1`, for which the AC50 is 0.946 µM (active) in the assay on Candida albicans [15]; 4.47 µM (active) with NIH3T3; 106 µM (active) in the assay on Candida albicans [16]; 2.72 µM (active) in the assay with Candida albicans [17]; 1.69 µM (active) in the assay on Candida albicans [18].
`COc1ccc(/C=C/c2nc3ccccc3c(=O)n2Cc2ccccc2)cc1OC`: the IC50 on Hexokinase HKDC1 and on Hexokinase-1 was > 80 µM (inactive) in each case.

The record behind these values is ChEMBL document CHEMBL1201862, “PubChem BioAssay data set” (2004).
